The numbers were not newly measured in patent US20140371322A1, “Phenoxybenzamine Transdermal Composition” (PROFESSIONAL COMPOUNDING CENTERS OF AMERICA, priority 2013, published 2014), which cites them from elsewhere.

Molecules are shown by their SMILES.

The conditions of series [1]: weak base.

With `CC(COc1ccccc1)N(CCCl)Cc1ccccc1` (centres unmarked) [phenoxybenzamine], the “octanol/water log P partition coefficient” value is 4.6. Also, in series [1], the “pka (dissociation constant)” value is on record as 6.58.
